Data: ChEMBL document CHEMBL1158737, “The psammaplysenes, specific inhibitors of FOXO1a nuclear export” (J Nat Prod, 2005)
Activity calls are given as the source filed them. The calls are words filed in the database; no cut-off is given here.

Target: Forkhead box protein O1 (Homo sapiens) (UniProt Q12778)
Test: Inhibition of FOXO1a nuclear export in PTEN-deficient cells
Assay type: cell-based

Chain of Forkhead box protein O1 (Homo sapiens) (Q12778 whole entry): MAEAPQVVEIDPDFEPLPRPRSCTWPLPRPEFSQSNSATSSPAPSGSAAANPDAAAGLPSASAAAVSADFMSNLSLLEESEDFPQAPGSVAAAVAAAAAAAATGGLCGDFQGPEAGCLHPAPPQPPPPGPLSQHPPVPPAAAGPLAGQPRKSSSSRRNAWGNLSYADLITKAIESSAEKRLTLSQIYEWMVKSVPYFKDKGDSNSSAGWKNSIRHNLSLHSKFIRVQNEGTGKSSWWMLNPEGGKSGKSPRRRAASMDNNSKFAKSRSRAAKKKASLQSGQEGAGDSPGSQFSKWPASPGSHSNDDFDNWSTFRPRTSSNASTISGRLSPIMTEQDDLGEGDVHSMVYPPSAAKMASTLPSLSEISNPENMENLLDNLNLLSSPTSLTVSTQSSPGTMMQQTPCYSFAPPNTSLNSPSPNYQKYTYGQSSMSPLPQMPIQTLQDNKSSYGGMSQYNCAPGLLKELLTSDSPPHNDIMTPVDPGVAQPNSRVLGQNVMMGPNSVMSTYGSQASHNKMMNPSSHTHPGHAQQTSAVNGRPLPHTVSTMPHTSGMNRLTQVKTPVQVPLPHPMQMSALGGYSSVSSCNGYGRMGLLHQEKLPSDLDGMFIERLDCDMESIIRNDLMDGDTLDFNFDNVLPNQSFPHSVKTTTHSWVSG

CNCCCOc1c(Br)cc(CCNC(=O)/C(Cc2ccc(OC)c(Br)c2)=N/O)cc1Br
Activity: inactive
